Key:
[1] = target: T1, Farnesyl pyrophosphate synthase (Homo sapiens) (UniProt P14324); assay: Inhibition of human recombinant N-terminal His6-tagged FPPS transfected in Escherichia coli BL21 (DE3) cells using GPP and [3H]-IPP as substrate at 10 uM incubated for 10 mins prior to substrate addition measured after 20 mins by liquid scintillation counting analysis; type: biochemical
T1 sequence (whole entry): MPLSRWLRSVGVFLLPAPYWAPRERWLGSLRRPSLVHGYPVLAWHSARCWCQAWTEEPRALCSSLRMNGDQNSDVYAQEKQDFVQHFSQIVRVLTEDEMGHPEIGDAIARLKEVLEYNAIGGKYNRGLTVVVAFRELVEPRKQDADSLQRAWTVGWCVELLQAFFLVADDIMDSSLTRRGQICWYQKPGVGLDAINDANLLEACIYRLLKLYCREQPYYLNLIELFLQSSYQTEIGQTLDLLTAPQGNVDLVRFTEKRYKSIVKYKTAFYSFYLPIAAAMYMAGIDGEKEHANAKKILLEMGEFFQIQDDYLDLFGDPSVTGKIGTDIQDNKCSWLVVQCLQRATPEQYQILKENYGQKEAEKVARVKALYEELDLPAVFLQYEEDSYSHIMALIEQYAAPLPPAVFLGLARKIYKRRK

[2] = target: T2, Farnesyl pyrophosphate synthase (Homo sapiens, UniProt P14324); assay: Inhibition of human recombinant N-terminal His6-tagged FPPS transfected in Escherichia coli BL21 (DE3) cells using GPP and [3H]-IPP as substrate incubated for 10 mins prior to substrate addition measured after 20 mins by liquid scintillation counting analysis
T2 sequence (P14324 whole entry): T1 sequence (whole entry)

[3] = target: T2, Farnesyl pyrophosphate synthase; assay: Inhibition of human FPPS

Structure (SMILES)	inhibition [1] [%]	other results
O=P(O)(O)C(Nc1ncnc2sccc12)P(=O)(O)O	75	
O=P(O)(O)C(Nc1ncnc2sc(-c3ccc4ccccc4c3)cc12)P(=O)(O)O		IC50 [2]: 250 nM
O=P(O)(O)C(Nc1ncnc2scc(-c3ccccc3)c12)P(=O)(O)O	< 20	
O=P(O)(O)C(Nc1ncnc2sc(-c3ccccc3)cc12)P(=O)(O)O	75	
O=P(O)(O)C(Nc1nc(-c2ccccc2)nc2sccc12)P(=O)(O)O	75	
Cc1ccc(-c2cc3c(NC(P(=O)(O)O)P(=O)(O)O)ncnc3s2)cc1		IC50 [2]: 390 nM
CC(C)=CCC/C(C)=C/CC(C/C=C(\C)CCC=C(C)C)(P(=O)(O)O)P(=O)(O)O [DIGERANYL BISPHOSPHONATE]		IC50 [3]: > 10000 nM
